Reference: publication PMC9928118, “Funneling modulatory peptide design with generative models: Discovery and characterization of disruptors of calcineurin protein-protein interactions” (PLOS Computational Biology, 2023)
One block for each sequence: values may come before it.

Tested on: GST-tagged Cn
Assay: PEPperPRINT peptide microarray binding assay with GST-tagged Cn
How it was run: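 Qualitative binding: peptides printed on a PEPperPRINT microarray were incubated overnight at 4 °C with 1 mg/ml GST-tagged Cn, then detected with Alexa-Fluor 647 anti-GST antibody. Log fluorescence was baseline-corrected, averaged over duplicate spots, Z-normalized and averaged across five repeats.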

[1] = GST-tagged Cn, max over the spots on the chip (two locations)
[2] = GST-tagged Cn, mean over the spots on the chip (two locations)
[3] = GST-tagged Cn, max over the chip spots listed under Location on chip
[4] = GST-tagged Cn, mean over the chip spots listed under Location on chip
[5] = GST-tagged Cn, max over the spots named in Location on chip
[6] = GST-tagged Cn, mean over the spots named in Location on chip
[7] = GST-tagged Cn, max over the chip locations
[8] = GST-tagged Cn, mean over the chip locations
[9] = max over the chip locations listed for the peptide (two spots)
[10] = mean over the chip locations listed for the peptide (two spots)
[11] = max over the spots listed under Location on chip
[12] = mean over the spots listed under Location on chip

Sequence: TFWTNPQYRIKLEEED [SeqRBMlowT_1298]
Chip Fluorescence (max) [5]: 1.462 | Chip Fluorescence (mean) [6]: 0.439

Sequence: TFHTNPQYRVNIEDQD [SeqRBM_8967]
Chip Fluorescence (max) [5]: 1.436 | Chip Fluorescence (mean) [6]: 0.08694

Sequence: TFWTNPQYKVKLEEED [SeqRBMlowT_252]
Chip Fluorescence (max) [1]: 1.065 | Chip Fluorescence (mean) [2]: 0.727

Sequence: RNYINPQAQFTYDSGA [SeqRBM_6031]
Chip Fluorescence (max) [7]: -0.2579 | Chip Fluorescence (mean) [8]: -0.9244

Sequence: KKMAPPCINIDPAPEN [SeqRBMlowT_2431]
Chip Fluorescence (max) [9]: 3.662 | Chip Fluorescence (mean) [10]: 0.8549

Sequence: TFWTNPQFRVKLEDPD [SeqRBMlowT_223]
Chip Fluorescence (max) [3]: 0.479 | Chip Fluorescence (mean) [4]: -1.105

Sequence: TFWTNPQIKLSLTEKD [SeqCAPN11_Camelus_ferus]
Chip Fluorescence (max) [11]: 3.072 | Chip Fluorescence (mean) [12]: 1.377

Sequence: TFWTNPQYRITLEEPD [SeqRBMlowT_212]
Chip Fluorescence (max) [1]: 1.104 | Chip Fluorescence (mean) [2]: 0.3317

Sequence: LKDEFPEVRLNIISNL [SeqRBMlowT_1004]
Chip Fluorescence (max) [1]: 1.029 | Chip Fluorescence (mean) [2]: 0.2404

Sequence: FSFMCPDSNTNHDQVS [SeqRBM_6801]
Chip Fluorescence (max) [3]: 0.3774 | Chip Fluorescence (mean) [4]: -0.7887

Sequence: QHMSVPKIQVTPTEIE [SeqRBM_9954]
Chip Fluorescence (max) [9]: 4.025 | Chip Fluorescence (mean) [10]: 2.718

Sequence: PALYDNALGIESFTLS [SeqCRZ1_Penicillium_arizonense]
Chip Fluorescence (max) [5]: 1.355 | Chip Fluorescence (mean) [6]: 0.6125

Sequence: TFWTNPQYRLKLEDPD [SeqRBMlowT_1296]
Chip Fluorescence (max) [9]: 7.375 | Chip Fluorescence (mean) [10]: 1.564

Sequence: LKDESPEVRLNIISKL [SeqRBMlowT_3831]
Chip Fluorescence (max) [1]: 1.167 | Chip Fluorescence (mean) [2]: 0.2257

Sequence: ADEAVPEITITPAELP [SeqRBMlowT_1267]
Chip Fluorescence (max) [11]: 2.637 | Chip Fluorescence (mean) [12]: 0.3175

Sequence: IKLIIWNHNISNHGTY [SeqRBM_5872]
Chip Fluorescence (max) [9]: 8.925 | Chip Fluorescence (mean) [10]: 1.809

Sequence: LNLKIPEVRLNIISAL [SeqRBMlowT_1835]
Chip Fluorescence (max) [7]: 0.09786 | Chip Fluorescence (mean) [8]: -0.5761

Sequence: TFWTNPQYRITLEDED [SeqRBMlowT_1185]
Chip Fluorescence (max) [9]: 4.604 | Chip Fluorescence (mean) [10]: 0.2377

Sequence: KAYMCPFMQFQDGGRR [SeqRBMlowT_520]
Chip Fluorescence (max) [3]: 0.6726 | Chip Fluorescence (mean) [4]: 0.4462

Sequence: KKMAPPCINIDPAPTS [SeqRBMlowT_307]
Chip Fluorescence (max) [7]: 0.2085 | Chip Fluorescence (mean) [8]: -1.259

Sequence: RQPGTALLELGGHKKQ [SeqRBMlowT_7758]
Chip Fluorescence (max) [1]: 1.043 | Chip Fluorescence (mean) [2]: 0.136

Sequence: GTETTPSIVVHVCEDD [SeqRBMlowT_128]
Chip Fluorescence (max) [9]: 4.964 | Chip Fluorescence (mean) [10]: 1.374

Sequence: ASTSTFPQQQTAHKKQ [SeqBOI2_Podospora_anserina]
Chip Fluorescence (max) [7]: -0.0111 | Chip Fluorescence (mean) [8]: -1.452

Sequence: TFWTNPQYVITLEEPD [SeqRBMlowT_2279]
Chip Fluorescence (max) [5]: 1.482 | Chip Fluorescence (mean) [6]: 0.5155

Sequence: KAYMNPFMQFIDGGRR [SeqRBMlowT_560]
Chip Fluorescence (max) [9]: 4.3098 | Chip Fluorescence (mean) [10]: 0.3269

Sequence: TFHINPQLHLIVSDAD [SeqCAPN11_Daphnia_magna]
Chip Fluorescence (max) [7]: -0.5586 | Chip Fluorescence (mean) [8]: -0.9234

Sequence: KKMSPPCINIDPAPTN [SeqRBMlowT_1811]
Chip Fluorescence (max) [1]: 0.9886 | Chip Fluorescence (mean) [2]: -0.8988

Sequence: TFWTNPQYRITLEEVD [SeqRBMlowT_98]
Chip Fluorescence (max) [3]: 0.8765 | Chip Fluorescence (mean) [4]: 0.0532

Sequence: MAGPHPKIVITGPHEE [PKIVIT-containing synthetic peptide]
Chip Fluorescence (max) [11]: 2.82 | Chip Fluorescence (mean) [12]: 1.158

Sequence: STAALPKFDFSNPHIS [SeqRBM_9234]
Chip Fluorescence (max) [11]: 2.8681 | Chip Fluorescence (mean) [12]: 0.4605

Sequence: RTYINPFMKFTIWGTQ [SeqRBM_6386]
Chip Fluorescence (max) [5]: 1.359 | Chip Fluorescence (mean) [6]: -0.5299

Sequence: ADEANPEITITPAELP [SeqRBMlowT_369]
Chip Fluorescence (max) [5]: 1.463 | Chip Fluorescence (mean) [6]: 0.5736

Sequence: FNSWRQVPLWSPEFHT [SeqRBM_9832]
Chip Fluorescence (max) [1]: 1.192 | Chip Fluorescence (mean) [2]: 0.531

Sequence: KKMSPPCIVVSPPEED [SeqRBMlowT_306]
Chip Fluorescence (max) [9]: 6.125 | Chip Fluorescence (mean) [10]: 1.9169

Sequence: TFWMNPQFKINLEEED [SeqCAPN11_Salmo_salar]
Chip Fluorescence (max) [11]: 3.077 | Chip Fluorescence (mean) [12]: 0.4499

Sequence: DSHTVDPIPINPHSAV [SeqRBM_5538]
Chip Fluorescence (max) [3]: 0.9715 | Chip Fluorescence (mean) [4]: -0.655

Sequence: PALESPRIEITSCLGL [SeqNFATC1_Homo_sapiens]
Chip Fluorescence (max) [5]: 1.48 | Chip Fluorescence (mean) [6]: 0.3949

Sequence: ADEAPPEITITPAELP [SeqRBMlowT_445]
Chip Fluorescence (max) [9]: 5.264 | Chip Fluorescence (mean) [10]: 0.1816

Sequence: PGLYENALGMESFSIS [SeqCRZ1_Ajellomyces_capsulatus]
Chip Fluorescence (max) [5]: 1.795 | Chip Fluorescence (mean) [6]: 0.6954

Sequence: HSKSIPKFSFQSPVHH [SeqRBMlowT_1680]
Chip Fluorescence (max) [7]: 0.06895 | Chip Fluorescence (mean) [8]: -0.7142

Sequence: EGKMDPELYISTVEAQ [SeqRBM_3392]
Chip Fluorescence (max) [9]: 3.895 | Chip Fluorescence (mean) [10]: 0.1296

Sequence: FSGNQPAIVVHTCEDP [SeqRBM_2445]
Chip Fluorescence (max) [7]: 0.03592 | Chip Fluorescence (mean) [8]: -0.8656

Now from value to sequence:

Chip Fluorescence (max) [1]: 1.17 | Chip Fluorescence (mean) [2]: -0.1022
Sequence: RNPGQALLELKGHSAQ [SeqRBMlowT_7734]

Chip Fluorescence (max) [3]: 0.5324 | Chip Fluorescence (mean) [4]: -0.206
Sequence: TFWSNPQFRITLEEPD [SeqRBMlowT_9100]

Chip Fluorescence (max) [3]: 0.9511 | Chip Fluorescence (mean) [4]: 0.1118
Sequence: SRPLDEEGAMAPTLAN [SeqRIPOR2_Propithecus_coquereli]

Chip Fluorescence (max) [7]: 0.04391 | Chip Fluorescence (mean) [8]: -1.286
Sequence: GQSISRNIRPNTFSPL [Seqshuffled_9432]

Chip Fluorescence (max) [1]: 1.274 | Chip Fluorescence (mean) [2]: 0.2599
Sequence: TFWTNPQYRVKVTEPD [SeqRBMlowT_7349]

Chip Fluorescence (max) [9]: 6.979 | Chip Fluorescence (mean) [10]: 1.446
Sequence: VAQAFNVDGNCTQYWN [Seqrandom_9942]

Chip Fluorescence (max) [9]: 6.671 | Chip Fluorescence (mean) [10]: 1.748
Sequence: RMMEPQNRGFKGCTES [Seqshuffled_509]

Chip Fluorescence (max) [3]: 0.7584 | Chip Fluorescence (mean) [4]: -1.743
Sequence: NVPKGIRFRRTYLAIP [Seqshuffled_5577]

Chip Fluorescence (max) [5]: 1.718 | Chip Fluorescence (mean) [6]: -0.1183
Sequence: LGRMSPQSTTQALPST [Seqshuffled_9332]

Chip Fluorescence (max) [5]: 1.453 | Chip Fluorescence (mean) [6]: -0.5656
Sequence: NAWKNPGQETHTTKKL [Seqshuffled_9929]

Chip Fluorescence (max) [11]: 2.722 | Chip Fluorescence (mean) [12]: 1.008
Sequence: VVMHKMPKTGGWWHCP [Seqrandom_9963]

Chip Fluorescence (max) [5]: 1.645 | Chip Fluorescence (mean) [6]: 1.054
Sequence: TFWMNPQFKVKLEEVD [SeqRBMlowT_6848]

Chip Fluorescence (max) [11]: 2.587 | Chip Fluorescence (mean) [12]: -0.184
Sequence: ASDDIPTVVIHPPEED [SeqSLC4A7_Pan_troglodytes]

Chip Fluorescence (max) [1]: 1.271 | Chip Fluorescence (mean) [2]: 0.8684
Sequence: TTWLVVFMIPELMKLS [Seqshuffled_9855]

Chip Fluorescence (max) [5]: 1.609 | Chip Fluorescence (mean) [6]: 0.3772
Sequence: RNPGQALLTLRGHSKQ [SeqRBMlowT_6189]

Chip Fluorescence (max) [5]: 1.862 | Chip Fluorescence (mean) [6]: -0.1462
Sequence: AKMAPPAINIDFAPPN [SeqRBMlowT_7690]

Chip Fluorescence (max) [3]: 0.749 | Chip Fluorescence (mean) [4]: -1.0469
Sequence: NGPGTPTRQGQPLAPS [SeqRBMlowT_7792]

Chip Fluorescence (max) [1]: 1.299 | Chip Fluorescence (mean) [2]: -0.4919
Sequence: LEAAPPDPDRKPPNII [Seqshuffled_9311]

Chip Fluorescence (max) [7]: -0.1972 | Chip Fluorescence (mean) [8]: -1.194
Sequence: SSAAPPAINIDFAPTN [SeqRBMlowT_5045]

Chip Fluorescence (max) [1]: 1.153 | Chip Fluorescence (mean) [2]: -0.5729
Sequence: SDEAGVRIVITVTEAP [SeqRBMlowT_9535]

Chip Fluorescence (max) [7]: -0.3471 | Chip Fluorescence (mean) [8]: -1.955
Sequence: YPPGTPTKQGQQMAPS [SeqRTS1_Aspergillus_carbonarius]
